Source: ChEMBL document CHEMBL3822444, “Synthesis and cytotoxic evaluation of novel indenoisoquinoline-substituted triazole hybrids” (Bioorg Med Chem Lett, 2016)

Tests used:
KB = assay: Cytotoxicity against human KB cells assessed as growth inhibition measured after 3 days by MTT assay; type: functional, cell-based; conditions: 72 h
HepG2 = assay: Cytotoxicity against human HepG2 cells assessed as growth inhibition measured after 3 days by MTT assay; type: functional, cell-based; conditions: HepG2, 72 h

Compound | IC50 (KB) | IC50 (HepG2)
Cc1c2ccncc2c(C)c2c1[nH]c1ccccc12 [ELLIPTECINE] | 1.26 µM | 1.46 µM
CC(C)C(=O)NCc1cn(CC(O)Cn2c3c(c4ccccc4c2=O)C(=O)c2ccccc2-3)nn1 (stereo unspecified) | 123 µM | 22.1 µM
CC(=O)NCc1cn(CC(O)Cn2c3c(c4ccccc4c2=O)C(=O)c2ccccc2-3)nn1 (stereo unspecified) | 14.1 µM | 9.04 µM
O=C(OCc1cn(CC(O)Cn2c3c(c4ccccc4c2=O)C(=O)c2ccccc2-3)nn1)c1ccc(Br)cc1 (stereo unspecified) | 6.28 µM | 4.27 µM
Cc1ccc(S(=O)(=O)Nc2cccc(-c3cn(CC(O)Cn4c5c(c6ccccc6c4=O)C(=O)c4ccccc4-5)nn3)c2)cc1 (stereo unspecified) | 89.9 µM | 69.8 µM
Cc1cn([C@@H]2C[C@@H](n3cc(COC(=O)[C@@H](Cc4c[nH]c5ccccc45)n4c5c(c6ccccc6c4=O)C(=O)c4ccccc4-5)nn3)[C@H](CO)O2)c(=O)[nH]c1=O (single isomer, unassigned) | 21.6 µM | 84.5 µM
Nc1cccc(-c2cn(CC(O)Cn3c4c(c5ccccc5c3=O)C(=O)c3ccccc3-4)nn2)c1 (stereo unspecified) | 15.3 µM | 32 µM
Cc1cn([C@H]2C[C@H](n3cc(Cn4c5c(c6ccccc6c4=O)C(=O)c4ccccc4-5)nn3)[C@@H](CO)O2)c(=O)[nH]c1=O | 0.79 µM | 0.64 µM
COc1ccc(C(=O)OCc2cn(CC(O)Cn3c4c(c5ccccc5c3=O)C(=O)c3ccccc3-4)nn2)cc1 (stereo unspecified) | 11.2 µM | 11.9 µM
O=C1c2ccccc2-c2c1c1ccccc1c(=O)n2Cc1cn(CC(O)Cn2c3c(c4ccccc4c2=O)C(=O)c2ccccc2-3)nn1 (stereo unspecified) | 2.89 µM | 2.29 µM
O=C1c2ccccc2-c2c1c1ccccc1c(=O)n2CC(O)Cn1cc(CO)nn1 (stereo unspecified) | 2.86 µM | 0.74 µM
Cc1cn([C@H]2C[C@H](N=[N+]=[N-])[C@@H](CO)O2)c(=O)[nH]c1=O [ZIDOVUDINE] |  | > 479 µM
[N-]=[N+]=NCC(O)Cn1c2c(c3ccccc3c1=O)C(=O)c1ccccc1-2 (stereo unspecified) | 42 µM | 45 µM
Cc1ccc(NC(=O)c2ccc(Cn3cc(Cn4c5c(c6ccccc6c4=O)C(=O)c4ccccc4-5)nn3)cc2)cc1Nc1nccc(-c2cccnc2)n1 | 1.56 µM | 2.33 µM
Cc1cn([C@H]2C[C@H](n3cc(COC(=O)[C@H](CC(C)C)n4c5c(c6ccccc6c4=O)C(=O)c4ccccc4-5)nn3)[C@@H](CO)O2)c(=O)[nH]c1=O | 0.75 µM | 2.25 µM
O=C(NCc1cn(CC(O)Cn2c3c(c4ccccc4c2=O)C(=O)c2ccccc2-3)nn1)c1ccc(Br)cc1 (stereo unspecified) | 56.7 µM | 43.8 µM
O=C1c2ccccc2-c2c1c1ccccc1c(=O)n2CC(O)Cn1cc(CBr)nn1 (stereo unspecified) | 0.79 µM | 0.76 µM
Cc1ccc(S(=O)(=O)NCc2cn(CC(O)Cn3c4c(c5ccccc5c3=O)C(=O)c3ccccc3-4)nn2)cc1 (stereo unspecified) | 115 µM | 115 µM
Cc1cn([C@H]2C[C@H](n3cc(COC(=O)[C@H](CO)n4c5c(c6ccccc6c4=O)C(=O)c4ccccc4-5)nn3)[C@@H](CO)O2)c(=O)[nH]c1=O | 0.35 µM | 1.18 µM
Cc1cn([C@H]2C[C@H](n3cc(COC(=O)[C@H](Cc4ccccc4)n4c5c(c6ccccc6c4=O)C(=O)c4ccccc4-5)nn3)[C@@H](CO)O2)c(=O)[nH]c1=O | 0.49 µM | 0.48 µM
Cc1cn([C@H]2C[C@H](n3cc(COC(=O)Cn4c5c(c6ccccc6c4=O)C(=O)c4ccccc4-5)nn3)[C@@H](CO)O2)c(=O)[nH]c1=O | 26.2 µM | 26.2 µM
CC(=O)Nc1cccc(-c2cn(CC(Cn3c4c(c5ccccc5c3=O)C(=O)c3ccccc3-4)OC(C)=O)nn2)c1 (stereo unspecified) | > 234 µM | > 234 µM
O=C1c2ccccc2-c2c1c1ccccc1c(=O)n2CC(O)Cn1cc(CN2CCOCC2)nn1 (stereo unspecified) | 1.56 µM | 10.2 µM
NCc1cn(CC(O)Cn2c3c(c4ccccc4c2=O)C(=O)c2ccccc2-3)nn1 (stereo unspecified) | 50 µM | 195 µM
CC(=O)OCc1cn(CC(Cn2c3c(c4ccccc4c2=O)C(=O)c2ccccc2-3)OC(C)=O)nn1 (stereo unspecified) | 18.6 µM | 19 µM
O=C(OCc1cn(CC(O)Cn2c3c(c4ccccc4c2=O)C(=O)c2ccccc2-3)nn1)c1ccc(Cl)cc1 (stereo unspecified) | 10.5 µM | 9.75 µM
